# Source: patent US12642799B2, “Composition and method for treating COVID-19” (University of South Florida, priority 2021, dated 2026)
# Tests used:
# TNFα, IL-6 = format: cell-based
# [1] = tested on: SARS CoV-2 (variants) infected Calu3 cells; format: cell-based
Compound,"inhibition of inflammatory cytokine production (TNFα, IL-6 mRNA) (TNFα, IL-6)",inhibition of viral replication (SARS CoV2 N protein mRNA) [1]
N[C@@H](CC(=O)N1CCn2c(nnc2C(F)(F)F)C1)Cc1cc(F)c(F)cc1F [sitagliptin],equally effective,equally effective
sitagliptin monohydrate phosphate,equally effective,equally effective
